System: K-562 leukemia growth, % test/control
Test: Anticancer human tumor K-562 cell line growth inhibition;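 note: spheroids exposed to compounds for 7 days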;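 for viability, T/C: 100% = DMSO vehicle wells and lower values mean fewer viable cells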
Settings: spheroids with HUVEC and MSC; for IC50: curve of first compound; for viability, T/C: stronger effect = lower value
How it was run: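 Multicellular complex spheroids of tumor cells with human endothelial cells (HUVEC) and mesenchymal stem cells; the LSD1 inhibitor iadademstat was combined with standard-of-care or investigational agents. Top concentration at or near clinical Cmax, half-log dilutions; final DMSO ≤0.25%.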

[1] = second compound 0.1 µM, first compound 0.00316 µM
[2] = second compound 0.1 µM, first compound 0.01 µM
[3] = second compound 0.1 µM, first compound 0.0316 µM
[4] = second compound 0.1 µM, first compound 0.1 µM
[5] = second compound 0.1 µM, first compound 0.316 µM
[6] = second compound 0.1 µM, first compound 1 µM
[7] = second compound 0.316 µM, first compound 0.00316 µM
[8] = second compound 0.316 µM, first compound 0.01 µM
[9] = second compound 0.316 µM, first compound 0.0316 µM
[10] = second compound 0.316 µM, first compound 0.1 µM
[11] = second compound 0.316 µM, first compound 0.316 µM
[12] = second compound 0.316 µM, first compound 1 µM
[13] = second compound 1 µM, first compound 0.00316 µM
[14] = second compound 1 µM, first compound 0.01 µM
[15] = second compound 1 µM, first compound 0.0316 µM
[16] = second compound 1 µM, first compound 0.1 µM
[17] = second compound 1 µM, first compound 0.316 µM
[18] = second compound 1 µM, first compound 1 µM
[19] = second compound 3.16 µM, first compound 0.00316 µM
[20] = second compound 3.16 µM, first compound 0.01 µM
[21] = second compound 3.16 µM, first compound 0.0316 µM
[22] = second compound 3.16 µM, first compound 0.1 µM
[23] = second compound 3.16 µM, first compound 0.316 µM
[24] = second compound 3.16 µM, first compound 1 µM
[25] = second compound 10 µM, first compound 0.00316 µM
[26] = second compound 10 µM, first compound 0.01 µM
[27] = second compound 10 µM, first compound 0.0316 µM
[28] = second compound 10 µM, first compound 0.1 µM
[29] = second compound 10 µM, first compound 0.316 µM
[30] = second compound 10 µM, first compound 1 µM

SMILES	IC50 (second compound 0.1 µM) [nM]	IC50 (second compound 0.316 µM) [nM]	IC50 (second compound 1 µM) [nM]	IC50 (second compound 3.16 µM) [nM]	IC50 (second compound 10 µM) [nM]	viability, T/C [3] [%]	viability, T/C [4] [%]	viability, T/C [5] [%]	viability, T/C [6] [%]	viability, T/C [9] [%]	viability, T/C [10] [%]	viability, T/C [11] [%]	viability, T/C [12] [%]	viability, T/C [15] [%]	viability, T/C [16] [%]	viability, T/C [17] [%]	viability, T/C [18] [%]	viability, T/C [21] [%]	viability, T/C [22] [%]	viability, T/C [23] [%]	other results
CC1COCCN1c1cc(-c2ccnn2C)c2ccnc(-c3ccn[nH]3)c2n1 (stereo not given) + NC1CC1c1ccc(-c2cccc(O)c2)cc1	< 3.16	< 3.16	< 3.16	< 3.16	< 3.16	2.71	1.86	2.44	2.27	2.23	1.78	1.8	1.5	2.17	1.57	1.71	1.4	2.11	1.71	1.83	viability, T/C [1]: 28.6%; viability, T/C [2]: 16.1%; viability, T/C [7]: 24.4%; viability, T/C [8]: 10.3%; viability, T/C [13]: 16.4%; viability, T/C [14]: 7.71%; viability, T/C [19]: 10.6%; viability, T/C [20]: 5.99%; viability, T/C [24]: 1.4%; viability, T/C [25]: 6.46%; viability, T/C [26]: 4.59%; viability, T/C [27]: 2.33%; viability, T/C [28]: 1.51%; viability, T/C [29]: 1.64%; viability, T/C [30]: 1.74%
COc1ccc([C@@H](O)c2cc(-c3ncnc4cc(N5CCOCC5)ccc34)c(F)cc2Cl)nn1 + NC1CC1c1ccc(-c2cccc(O)c2)cc1	7900	7530	6490	4840	1160	111	107	106	106	104	107	101	98.6	99.1	98.8	99.5	98.3	103	99.6	94.2	viability, T/C (second compound 0.1 µM, first compound 3.16 µM): 93.1%; viability, T/C (second compound 0.1 µM, first compound 10 µM): 38.8%; viability, T/C (second compound 0.316 µM, first compound 3.16 µM): 85.4%; viability, T/C (second compound 0.316 µM, first compound 10 µM): 38.2%; viability, T/C (second compound 1 µM, first compound 3.16 µM): 77%; viability, T/C (second compound 1 µM, first compound 10 µM): 33.8%; viability, T/C [24]: 83.5%; viability, T/C (second compound 3.16 µM, first compound 3.16 µM): 59.7%; viability, T/C (second compound 3.16 µM, first compound 10 µM): 32.7%; viability, T/C [27]: 96.6%; viability, T/C [28]: 96.9%; viability, T/C [29]: 66.7%; viability, T/C [30]: 52.9%; viability, T/C (second compound 10 µM, first compound 3.16 µM): 38.9%; viability, T/C (second compound 10 µM, first compound 10 µM): 24.6%
O=C(C=Cn1cnc(-c2cc(C(F)(F)F)cc(C(F)(F)F)c2)n1)NNc1cnccn1 + NC1CC1c1ccc(-c2cccc(O)c2)cc1	115	76.5	67.6	66.7	50.2	93.5	56.2	9.94	1.19	83.1	40.1	9.06	1.23	80.7	34	8.67	1.78	73.4	37.6	8.04	viability, T/C [1]: 106%; viability, T/C [2]: 103%; viability, T/C [7]: 106%; viability, T/C [8]: 103%; viability, T/C [13]: 102%; viability, T/C [14]: 96.4%; viability, T/C [19]: 97%; viability, T/C [20]: 94.9%; viability, T/C [24]: 1.27%; viability, T/C [25]: 91.4%; viability, T/C [26]: 91.3%; viability, T/C [27]: 59.8%; viability, T/C [28]: 32.7%; viability, T/C [29]: 6.57%; viability, T/C [30]: 2.98%

Source: PubChem BioAssay AID1918948 (Molecular Pharmacology Branch, DTP, NCI, 2023)
